Bridges are numbered along the chain shown (N, C = ends). Roman numbers before positions name the chains, in order.
Tests used:
Format in all cases: cell-based, human
[1] = test system: IL-33 signaling (HEK-Blue IL-33 cells); experiment: SEAP reporter assay in HEK-Blue IL-33 reporter cells
Procedure: HEK-Blue® IL-33 (Invivogen, Cat. #hkb-hil33) and IL-1β cells (Invivogen, Cat #hkb-il1bv2) were cultured in T25 and T75 flasks (NUNC, Cat. #156367 and #156499) in DMEM media supplemented with L-glutamine (Gibco, Cat. #11995-065), 10% Fetal Bovine Serum (Gibco, Cat. #10437-028), 1% Penicillin/Streptomycin (Gibco, Cat. #15140-148), and 0.5% Normacin® (Invivogen, Cat. #ant-hr-1). IL-33 cell growth media also included 1 mL of 250× Selectin Cocktail® (Invivogen, Cat. #hb-sel) and IL-1β cell growth media included 100 μg/mL of Zeocin® (Cat #ant-zn-05). Cells were maintained at 37° C. with humidity and 5% CO2 and were passaged upon reaching 80-85% confluency. […]
IL-33 and IL-1β signaling activation was assessed based on the expression of a SEAP reporter gene. […] Pellet was resuspended in 5 mL test medium (DMEM, 10% heat inactivated FBS, and 1% P/S), cells counted, and concentration adjusted to 2.8×10^5 cell/mL. […] After incubation, SEAP reporter gene phosphatase activity was measured by adding 20 μL of supernatant from each well to 180 μL of QuantiBLUE substrate (Invivogen, Cat #rep-qbs) and incubated an additional 30 min at 37° C. Colorimetric absorbance was measured at 620 nm. […]
MSTOP bioactivity was determined in a reporter gene cell model. […] After six hours, IL-33 signaling was quantified by absorbance at 620 nm, based on the metabolism of QUANTI-Blue substrate by expressed SEAP secreted into the media.

[2] = test system: HEK-Blue cells; experiment: CellTiterGlo cell viability / cellular cytotoxicity assay
[3] = test system: IL-1β signaling (HEK-Blue IL-1β cells); experiment: SEAP reporter assay in HEK-Blue IL-1β reporter cells; conditions: 10 μM; 250 pg/mL IL-1β
Procedure: HEK-Blue® IL-33 (Invivogen, Cat. #hkb-hil33) and IL-1β cells (Invivogen, Cat #hkb-il1bv2) were cultured in T25 and T75 flasks (NUNC, Cat. #156367 and #156499) in DMEM media supplemented with L-glutamine (Gibco, Cat. #11995-065), 10% Fetal Bovine Serum (Gibco, Cat. #10437-028), 1% Penicillin/Streptomycin (Gibco, Cat. #15140-148), and 0.5% Normacin® (Invivogen, Cat. #ant-hr-1). IL-33 cell growth media also included 1 mL of 250× Selectin Cocktail® (Invivogen, Cat. #hb-sel) and IL-1β cell growth media included 100 μg/mL of Zeocin® (Cat #ant-zn-05). Cells were maintained at 37° C. with humidity and 5% CO2 and were passaged upon reaching 80-85% confluency. To ensure assay consistency, passage number was kept low (<20) to maintain stable ST2 and IL-1RI expression.
IL-33 and IL-1β signaling activation was assessed based on the expression of a SEAP reporter gene. Flasks were washed 2× with prewarmed, sterile PBS (Gibco), scraped in fresh media, and spun down for 5 m at 250×g. Pellet was resuspended in 5 mL test medium (DMEM, 10% heat inactivated FBS, and 1% P/S), cells counted, and concentration adjusted to 2.8×10^5 cell/mL. […] After incubation, SEAP reporter gene phosphatase activity was measured by adding 20 μL of supernatant from each well to 180 μL of QuantiBLUE substrate (Invivogen, Cat #rep-qbs) and incubated an additional 30 min at 37° C. Colorimetric absorbance was measured at 620 nm. […]

MSTOP: 3WJ DNA scaffold whose three DBCO staple strands carry cyclized azidolysine IL-1RAcP hotspot peptides; decoy for IL-33/ST2 (peptide 1 Ac-CKEYGIQRITC-NH2; peptide 2 Ac-AKVGSPKNAVPPC-NH2; peptide 3 Ac-CKGEVAKAAKVKC-NH2; disulfide I:1-I:11, III:1-III:13; thioether II:1-II:13; not fully specified (some residues); also: three peptides held on a 3-way junction DNA scaffold via DBCO staple strands)
reduction in IL-33 induced SEAP expression ([1]; 1 μM, 100 pg/mL IL-33, 6 h): ~40%
inhibition of IL-33 cells compared to IL-1β cells ([1]; MSTOP dose curve 10 μM to 10 nM): Significant inhibition
cell viability ([2]; 10 μM, CellTiterGlo): did not decrease cell viability
cellular cytotoxicity ([2]; FIG. 4F, concentrations in μM): not toxic
reduction in SEAP expression [3]: Negligible reduction

— patent US20240084044A1, “Heteromultivalent Nucleic Acid Scaffolds and Uses Thereof” (George Mason University, priority 2022, published 2024)
